Source: PubChem BioAssay AID1982 (Sanford-Burnham Center for Chemical Genomics, 2009)
Calls of active or inactive are those of the source. How the calls were made is not given here.

What was measured:
Test in all cases: kinase panel binding selectivity, selectivity assay, biochemical, KINOMEscan (AID 1982)
[1] = test system: EPHB4; settings: KINOMEscan 353-kinase binding panel, qPCR, at 10 µM, hits give low values
[2] = test system: MST1; settings: KINOMEscan 353-kinase binding panel, qPCR, at 10 µM, hits give low values
[3] = target: 3-phosphoinositide-dependent protein kinase 1 (Homo sapiens) (UniProt O15530); settings: KINOMEscan 353-kinase binding panel, qPCR; PDPK1; at 10 µM; hits give low values
Chain of 3-phosphoinositide-dependent protein kinase 1 (Homo sapiens) (O15530 whole entry, looked up): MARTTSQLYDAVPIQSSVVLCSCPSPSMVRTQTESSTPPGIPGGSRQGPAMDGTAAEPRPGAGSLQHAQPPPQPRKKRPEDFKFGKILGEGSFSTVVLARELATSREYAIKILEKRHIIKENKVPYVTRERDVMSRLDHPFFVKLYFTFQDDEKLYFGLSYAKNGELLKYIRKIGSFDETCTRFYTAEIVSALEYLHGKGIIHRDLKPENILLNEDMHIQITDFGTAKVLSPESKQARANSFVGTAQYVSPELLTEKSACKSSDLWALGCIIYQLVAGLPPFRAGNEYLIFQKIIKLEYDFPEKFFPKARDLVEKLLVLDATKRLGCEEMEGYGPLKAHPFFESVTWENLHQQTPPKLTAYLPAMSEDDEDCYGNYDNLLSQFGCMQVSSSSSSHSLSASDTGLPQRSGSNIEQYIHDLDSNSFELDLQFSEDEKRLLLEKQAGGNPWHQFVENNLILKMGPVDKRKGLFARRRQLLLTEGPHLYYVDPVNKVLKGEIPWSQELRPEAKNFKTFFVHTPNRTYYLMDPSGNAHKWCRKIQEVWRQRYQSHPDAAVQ

[4] = target: Serine/threonine-protein kinase N2 (Homo sapiens) (UniProt Q16513); settings: KINOMEscan 353-kinase binding panel, qPCR; PKN2; at 10 µM; hits give low values
Chain of Serine/threonine-protein kinase N2 (Homo sapiens) (Q16513 whole entry, looked up): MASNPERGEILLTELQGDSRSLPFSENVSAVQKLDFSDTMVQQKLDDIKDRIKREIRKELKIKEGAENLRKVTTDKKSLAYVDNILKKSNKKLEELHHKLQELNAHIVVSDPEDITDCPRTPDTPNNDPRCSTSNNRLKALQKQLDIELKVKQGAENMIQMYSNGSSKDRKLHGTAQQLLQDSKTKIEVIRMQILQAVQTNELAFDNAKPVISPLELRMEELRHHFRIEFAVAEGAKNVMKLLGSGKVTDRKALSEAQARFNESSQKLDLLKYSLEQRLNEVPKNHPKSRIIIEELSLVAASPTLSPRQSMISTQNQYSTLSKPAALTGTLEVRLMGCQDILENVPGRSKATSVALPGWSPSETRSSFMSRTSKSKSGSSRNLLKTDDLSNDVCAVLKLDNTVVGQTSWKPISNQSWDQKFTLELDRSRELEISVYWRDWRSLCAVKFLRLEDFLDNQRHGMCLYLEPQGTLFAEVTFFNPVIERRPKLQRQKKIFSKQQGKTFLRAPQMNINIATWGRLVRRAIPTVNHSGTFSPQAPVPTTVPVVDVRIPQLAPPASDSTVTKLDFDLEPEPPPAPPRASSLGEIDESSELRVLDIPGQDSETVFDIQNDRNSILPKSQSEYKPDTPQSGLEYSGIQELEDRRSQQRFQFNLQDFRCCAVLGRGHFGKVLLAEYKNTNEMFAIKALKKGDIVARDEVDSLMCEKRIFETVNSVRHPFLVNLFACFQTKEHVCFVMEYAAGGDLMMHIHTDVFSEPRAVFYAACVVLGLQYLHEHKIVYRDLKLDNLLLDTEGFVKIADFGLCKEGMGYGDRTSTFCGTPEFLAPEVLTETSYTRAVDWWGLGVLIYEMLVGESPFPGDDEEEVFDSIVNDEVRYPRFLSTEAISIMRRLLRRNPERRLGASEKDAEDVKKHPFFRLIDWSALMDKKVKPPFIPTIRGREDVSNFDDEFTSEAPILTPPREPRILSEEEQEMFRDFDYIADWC

[5] = target: Protein kinase C theta type (Homo sapiens) (UniProt Q04759); settings: KINOMEscan 353-kinase binding panel, qPCR; PRKCQ; at 10 µM; hits give low values
Chain of Protein kinase C theta type (Homo sapiens) (Q04759 whole entry, looked up): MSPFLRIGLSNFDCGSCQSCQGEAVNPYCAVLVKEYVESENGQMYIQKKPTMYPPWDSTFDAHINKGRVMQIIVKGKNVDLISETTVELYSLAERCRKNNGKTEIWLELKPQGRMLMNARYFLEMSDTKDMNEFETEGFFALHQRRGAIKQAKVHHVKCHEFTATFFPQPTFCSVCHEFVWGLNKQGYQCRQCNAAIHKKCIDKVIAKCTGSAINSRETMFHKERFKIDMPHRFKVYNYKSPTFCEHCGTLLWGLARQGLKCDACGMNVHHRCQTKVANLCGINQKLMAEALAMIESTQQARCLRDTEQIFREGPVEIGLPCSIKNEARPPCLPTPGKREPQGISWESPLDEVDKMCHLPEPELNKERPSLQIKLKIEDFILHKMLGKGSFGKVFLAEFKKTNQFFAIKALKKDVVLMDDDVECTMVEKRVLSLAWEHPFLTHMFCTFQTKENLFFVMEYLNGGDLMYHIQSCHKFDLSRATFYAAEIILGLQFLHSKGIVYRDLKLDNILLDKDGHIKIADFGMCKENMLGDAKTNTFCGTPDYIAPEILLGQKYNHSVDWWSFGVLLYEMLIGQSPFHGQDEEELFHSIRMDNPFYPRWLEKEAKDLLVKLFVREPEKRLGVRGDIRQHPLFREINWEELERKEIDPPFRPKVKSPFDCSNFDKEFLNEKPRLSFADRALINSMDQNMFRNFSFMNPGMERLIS

[6] = test system: p38-delta; settings: KINOMEscan 353-kinase binding panel, qPCR, at 10 µM, hits give low values
[7] = test system: CAMKK1; settings: KINOMEscan 353-kinase binding panel, qPCR, at 10 µM, hits give low values
[8] = target: Protein-tyrosine kinase 2-beta (Homo sapiens) (UniProt Q14289); settings: KINOMEscan 353-kinase binding panel, qPCR; PTK2B; at 10 µM; hits give low values
[9] = target: Serine/threonine-protein kinase Nek2 (Homo sapiens) (UniProt P51955); settings: KINOMEscan 353-kinase binding panel, qPCR, at 10 µM, hits give low values
[10] = test system: TAK1; settings: KINOMEscan 353-kinase binding panel, qPCR, at 10 µM, hits give low values
[11] = test system: SRPK2; settings: KINOMEscan 353-kinase binding panel, qPCR, at 10 µM, hits give low values
[12] = test system: DAPK1; settings: KINOMEscan 353-kinase binding panel, qPCR, at 10 µM, hits give low values
[13] = target: Tyrosine-protein kinase FRK (Homo sapiens) (UniProt P42685); settings: KINOMEscan 353-kinase binding panel, qPCR, at 10 µM, hits give low values
Chain of Tyrosine-protein kinase FRK (Homo sapiens) (P42685 whole entry, looked up): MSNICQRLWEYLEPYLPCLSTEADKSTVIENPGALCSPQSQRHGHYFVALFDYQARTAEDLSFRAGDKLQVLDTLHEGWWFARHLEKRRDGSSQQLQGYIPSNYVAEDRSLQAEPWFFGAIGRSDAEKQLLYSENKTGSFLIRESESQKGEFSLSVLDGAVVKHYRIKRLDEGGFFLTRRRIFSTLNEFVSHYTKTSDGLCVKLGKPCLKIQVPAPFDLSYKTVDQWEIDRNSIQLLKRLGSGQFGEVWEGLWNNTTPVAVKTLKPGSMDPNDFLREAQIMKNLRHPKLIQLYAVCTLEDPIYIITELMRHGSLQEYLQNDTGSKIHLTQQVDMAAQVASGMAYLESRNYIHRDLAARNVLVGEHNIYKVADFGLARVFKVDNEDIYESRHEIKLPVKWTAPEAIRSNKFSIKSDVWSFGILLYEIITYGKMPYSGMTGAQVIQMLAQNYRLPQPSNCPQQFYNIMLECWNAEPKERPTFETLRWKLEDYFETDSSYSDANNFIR

[14] = test system: EPHB3; settings: KINOMEscan 353-kinase binding panel, qPCR, at 10 µM, hits give low values
[15] = test system: MKNK1; settings: KINOMEscan 353-kinase binding panel, qPCR, at 10 µM, hits give low values
[16] = target: Macrophage-stimulating protein receptor (Homo sapiens) (UniProt Q04912); settings: KINOMEscan 353-kinase binding panel, qPCR; MST1R; at 10 µM; hits give low values
Chain of Macrophage-stimulating protein receptor (Homo sapiens) (Q04912 whole entry, looked up): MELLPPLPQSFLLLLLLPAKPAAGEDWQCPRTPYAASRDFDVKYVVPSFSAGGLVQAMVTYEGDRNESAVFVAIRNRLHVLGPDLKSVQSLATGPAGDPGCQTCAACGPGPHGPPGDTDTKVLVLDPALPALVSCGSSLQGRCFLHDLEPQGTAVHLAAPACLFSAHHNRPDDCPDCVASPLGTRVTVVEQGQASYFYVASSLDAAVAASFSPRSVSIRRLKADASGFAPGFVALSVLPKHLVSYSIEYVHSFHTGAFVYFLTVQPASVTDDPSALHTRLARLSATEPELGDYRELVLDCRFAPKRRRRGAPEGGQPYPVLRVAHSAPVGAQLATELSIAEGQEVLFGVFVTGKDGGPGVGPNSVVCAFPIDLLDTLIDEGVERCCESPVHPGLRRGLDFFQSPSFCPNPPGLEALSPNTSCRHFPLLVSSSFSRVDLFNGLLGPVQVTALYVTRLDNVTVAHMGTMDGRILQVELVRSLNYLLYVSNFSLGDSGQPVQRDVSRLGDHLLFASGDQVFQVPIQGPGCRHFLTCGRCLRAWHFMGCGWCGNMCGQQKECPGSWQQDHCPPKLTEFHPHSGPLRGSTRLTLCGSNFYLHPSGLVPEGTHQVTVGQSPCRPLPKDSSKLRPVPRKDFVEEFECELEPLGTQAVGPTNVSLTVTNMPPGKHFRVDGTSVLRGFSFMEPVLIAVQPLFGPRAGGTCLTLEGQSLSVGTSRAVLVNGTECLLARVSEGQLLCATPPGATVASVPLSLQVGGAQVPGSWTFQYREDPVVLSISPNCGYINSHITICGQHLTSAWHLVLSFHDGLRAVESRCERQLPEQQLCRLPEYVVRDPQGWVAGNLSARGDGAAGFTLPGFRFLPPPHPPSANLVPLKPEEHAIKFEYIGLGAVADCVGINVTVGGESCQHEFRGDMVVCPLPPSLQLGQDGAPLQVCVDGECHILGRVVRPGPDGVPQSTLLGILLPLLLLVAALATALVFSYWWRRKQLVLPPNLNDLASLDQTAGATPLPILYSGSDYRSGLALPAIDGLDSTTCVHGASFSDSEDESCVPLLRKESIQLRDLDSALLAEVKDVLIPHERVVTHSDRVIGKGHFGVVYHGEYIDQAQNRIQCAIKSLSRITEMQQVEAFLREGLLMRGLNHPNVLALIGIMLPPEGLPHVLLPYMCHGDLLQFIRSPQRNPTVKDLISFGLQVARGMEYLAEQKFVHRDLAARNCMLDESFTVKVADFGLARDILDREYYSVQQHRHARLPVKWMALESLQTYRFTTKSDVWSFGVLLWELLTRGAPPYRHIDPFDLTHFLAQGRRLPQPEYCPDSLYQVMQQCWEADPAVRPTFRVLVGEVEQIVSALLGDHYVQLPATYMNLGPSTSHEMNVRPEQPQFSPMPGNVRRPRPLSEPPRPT

[17] = target: Wee1-like protein kinase (Homo sapiens) (UniProt P30291); settings: KINOMEscan 353-kinase binding panel, qPCR, at 10 µM, hits give low values
[18] = test system: ACVR2B; settings: KINOMEscan 353-kinase binding panel, qPCR, at 10 µM, hits give low values
[19] = test system: PIK3CA; settings: KINOMEscan 353-kinase binding panel, qPCR, at 10 µM, hits give low values
[20] = test system: NDR2; settings: KINOMEscan 353-kinase binding panel, qPCR, at 10 µM, hits give low values
[21] = target: Misshapen-like kinase 1 (Homo sapiens) (UniProt Q8N4C8); settings: KINOMEscan 353-kinase binding panel, qPCR; MINK; at 10 µM; hits give low values
[22] = test system: HIPK1; settings: KINOMEscan 353-kinase binding panel, qPCR, at 10 µM, hits give low values
[23] = target: Serine/threonine-protein kinase pim-1 (Homo sapiens) (UniProt P11309); settings: KINOMEscan 353-kinase binding panel, qPCR; PIM1; at 10 µM; hits give low values
Chain of Serine/threonine-protein kinase pim-1 (Homo sapiens) (P11309 whole entry, looked up): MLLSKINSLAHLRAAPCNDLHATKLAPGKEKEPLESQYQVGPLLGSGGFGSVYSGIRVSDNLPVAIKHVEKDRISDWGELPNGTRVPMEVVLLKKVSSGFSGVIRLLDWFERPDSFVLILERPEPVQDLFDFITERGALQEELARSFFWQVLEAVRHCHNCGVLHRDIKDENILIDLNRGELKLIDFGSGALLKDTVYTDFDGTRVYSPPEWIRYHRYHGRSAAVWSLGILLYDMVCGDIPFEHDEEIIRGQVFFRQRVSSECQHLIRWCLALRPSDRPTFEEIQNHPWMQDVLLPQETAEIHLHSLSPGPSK

[24] = target: MAP/microtubule affinity-regulating kinase 3 (Homo sapiens) (UniProt P27448); settings: KINOMEscan 353-kinase binding panel, qPCR; MARK3; at 10 µM; hits give low values
[25] = test system: SNF1LK; settings: KINOMEscan 353-kinase binding panel, qPCR, at 10 µM, hits give low values
[26] = target: Tyrosine-protein kinase HCK (Homo sapiens) (UniProt P08631); settings: KINOMEscan 353-kinase binding panel, qPCR, at 10 µM, hits give low values
Chain of Tyrosine-protein kinase HCK (Homo sapiens) (P08631 whole entry, looked up): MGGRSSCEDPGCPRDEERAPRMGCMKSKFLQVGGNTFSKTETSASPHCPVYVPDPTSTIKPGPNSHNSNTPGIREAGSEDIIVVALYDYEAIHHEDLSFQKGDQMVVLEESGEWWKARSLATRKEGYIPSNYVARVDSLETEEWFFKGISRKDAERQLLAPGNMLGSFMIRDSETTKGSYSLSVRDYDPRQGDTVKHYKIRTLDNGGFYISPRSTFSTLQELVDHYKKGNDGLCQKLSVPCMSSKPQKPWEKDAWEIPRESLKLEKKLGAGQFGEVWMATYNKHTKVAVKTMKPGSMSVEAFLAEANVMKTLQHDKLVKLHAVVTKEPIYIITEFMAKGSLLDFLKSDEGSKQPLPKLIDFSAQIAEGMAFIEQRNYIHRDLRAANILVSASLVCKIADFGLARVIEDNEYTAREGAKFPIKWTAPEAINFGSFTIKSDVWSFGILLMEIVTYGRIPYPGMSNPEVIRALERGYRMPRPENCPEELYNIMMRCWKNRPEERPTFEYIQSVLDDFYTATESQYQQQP

[27] = test system: CSNK1A1L; settings: KINOMEscan 353-kinase binding panel, qPCR, at 10 µM, hits give low values
[28] = test system: FGFR2; settings: KINOMEscan 353-kinase binding panel, qPCR, at 10 µM, hits give low values
[29] = test system: PIK3CA(E545K); settings: KINOMEscan 353-kinase binding panel, qPCR, at 10 µM, hits give low values
[30] = test system: INSRR; settings: KINOMEscan 353-kinase binding panel, qPCR, at 10 µM, hits give low values
[31] = test system: MYO3A; settings: KINOMEscan 353-kinase binding panel, qPCR, at 10 µM, hits give low values
[32] = test system: EPHA7; settings: KINOMEscan 353-kinase binding panel, qPCR, at 10 µM, hits give low values
[33] = test system: BMX; settings: KINOMEscan 353-kinase binding panel, qPCR, at 10 µM, hits give low values
[34] = target: NT-3 growth factor receptor (Homo sapiens) (UniProt Q16288); settings: KINOMEscan 353-kinase binding panel, qPCR; TRKC; at 10 µM; hits give low values
[35] = target: Serine/threonine-protein kinase PAK 5 (Homo sapiens) (UniProt Q9P286); settings: KINOMEscan 353-kinase binding panel, qPCR; PAK7/PAK5; at 10 µM; hits give low values
[36] = target: Dual specificity protein kinase CLK3 (Homo sapiens) (UniProt P49761); settings: KINOMEscan 353-kinase binding panel, qPCR, at 10 µM, hits give low values
[37] = test system: AMPK-alpha2; settings: KINOMEscan 353-kinase binding panel, qPCR, at 10 µM, hits give low values
[38] = target: Hepatocyte growth factor receptor (Homo sapiens) (UniProt P08581); settings: KINOMEscan 353-kinase binding panel, qPCR; MET; at 10 µM; hits give low values

percent of control binding [1]: 98% (inactive) | percent of control binding [2]: 90% (inactive) | percent of control binding [3]: 95% (inactive) | percent of control binding [4]: 100% (inactive) | percent of control binding [5]: 100% (inactive) | percent of control binding [6]: 100% (inactive) | percent of control binding [7]: 78% (inactive) | percent of control binding [8]: 100% (inactive) | percent of control binding [9]: 84% (inactive) | percent of control binding [10]: 100% (inactive) | percent of control binding [11]: 100% (inactive) | percent of control binding [12]: 87% (inactive) | percent of control binding [13]: 89% (inactive) | percent of control binding [14]: 86% (inactive) | percent of control binding [15]: 75% (inactive) | percent of control binding [16]: 100% (inactive) | percent of control binding [17]: 90% (inactive) | percent of control binding [18]: 100% (inactive) | percent of control binding [19]: 78% (inactive) | percent of control binding [20]: 100% (inactive) | percent of control binding [21]: 100% (inactive) | percent of control binding [22]: 100% (inactive) | percent of control binding [23]: 100% (inactive) | percent of control binding [24]: 100% (inactive) | percent of control binding [25]: 100% (inactive) | percent of control binding [26]: 93% (inactive) | percent of control binding [27]: 99% (inactive) | percent of control binding [28]: 100% (inactive) | percent of control binding [29]: 100% (inactive) | percent of control binding [30]: 100% (inactive) | percent of control binding [31]: 89% (inactive) | percent of control binding [32]: 87% (inactive) | percent of control binding [33]: 84% (inactive) | percent of control binding [34]: 100% (inactive) | percent of control binding [35]: 79% (inactive) | percent of control binding [36]: 100% (inactive) | percent of control binding [37]: 100% (inactive) | percent of control binding [38]: 97% (inactive)
Structure (SMILES): Cc1cc2nc(NCCCO)n(CC(=O)c3cc(C(C)(C)C)c(O)c(C(C)(C)C)c3)c2cc1C
